Reference: the kinase profiling compilation of Christmann-Franck et al. (2016)

What was measured:
Assay in all cases: KINOMEscan competition binding
Conditions in all cases: compound 0.5 µM
[1] = tested on: ABL1 (human), P00519 [Y253F]
ACVR2A (human) = ACVR2A (human) (UniProt P27037)
CAMK1D (human) = CAMK1D (human) (UniProt Q8IU85)
CDK17 (human) = CDK17 (human) (UniProt Q00537)
CDK19 (human) = CDK19 (human) (UniProt Q9BWU1)
CDK3 (human) = CDK3 (human) (UniProt Q00526)
CIT (human) = CIT (human) (UniProt O14578)
CLK1 (human) = CLK1 (human) (UniProt P49759)
CSNK2A2 (human) = CSNK2A2 (human) (UniProt P19784)
CaMK1 (human) = CaMK1 (human) (UniProt Q14012)
EPHA8 (human) = EPHA8 (human) (UniProt P29322)
[2] = tested on: FLT3 (human), P36888 [R834Q]
HIPK2 (human) = HIPK2 (human) (UniProt Q9H2X6)
Sequence of HIPK2 (human) (Q9H2X6 whole entry, looked up): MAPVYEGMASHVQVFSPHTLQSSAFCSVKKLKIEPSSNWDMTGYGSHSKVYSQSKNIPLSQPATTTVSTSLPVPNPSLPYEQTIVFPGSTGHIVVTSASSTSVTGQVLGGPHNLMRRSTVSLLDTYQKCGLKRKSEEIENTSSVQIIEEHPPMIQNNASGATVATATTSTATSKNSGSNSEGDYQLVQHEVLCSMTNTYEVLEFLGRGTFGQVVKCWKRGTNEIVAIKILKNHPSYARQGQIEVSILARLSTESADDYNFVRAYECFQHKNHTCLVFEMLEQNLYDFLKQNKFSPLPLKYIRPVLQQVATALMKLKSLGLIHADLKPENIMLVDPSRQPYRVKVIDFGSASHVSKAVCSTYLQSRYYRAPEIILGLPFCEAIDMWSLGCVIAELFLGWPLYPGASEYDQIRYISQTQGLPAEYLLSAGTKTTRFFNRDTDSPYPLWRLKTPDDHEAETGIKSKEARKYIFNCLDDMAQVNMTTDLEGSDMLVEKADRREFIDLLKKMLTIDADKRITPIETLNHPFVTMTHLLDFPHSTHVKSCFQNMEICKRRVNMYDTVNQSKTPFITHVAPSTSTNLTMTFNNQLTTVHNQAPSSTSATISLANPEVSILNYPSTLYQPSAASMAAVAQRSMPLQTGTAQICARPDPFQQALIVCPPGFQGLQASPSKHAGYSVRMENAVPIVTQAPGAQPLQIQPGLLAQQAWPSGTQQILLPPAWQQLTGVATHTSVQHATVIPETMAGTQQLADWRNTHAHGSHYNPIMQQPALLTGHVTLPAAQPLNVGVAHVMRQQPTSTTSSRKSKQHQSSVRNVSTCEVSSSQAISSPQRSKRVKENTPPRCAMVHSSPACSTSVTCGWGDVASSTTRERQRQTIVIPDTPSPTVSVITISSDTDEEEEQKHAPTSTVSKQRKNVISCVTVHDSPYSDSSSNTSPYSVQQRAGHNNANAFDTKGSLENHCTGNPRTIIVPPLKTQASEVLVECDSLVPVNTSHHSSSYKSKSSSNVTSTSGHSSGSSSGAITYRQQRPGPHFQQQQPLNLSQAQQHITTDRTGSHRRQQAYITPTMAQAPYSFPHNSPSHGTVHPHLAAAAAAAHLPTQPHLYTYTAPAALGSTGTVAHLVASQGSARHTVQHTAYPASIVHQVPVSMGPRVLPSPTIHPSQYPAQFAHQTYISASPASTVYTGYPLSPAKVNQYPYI

HIPK3 (human) = HIPK3 (human) (UniProt Q9H422)
Sequence of HIPK3 (human) (Q9H422 whole entry, looked up): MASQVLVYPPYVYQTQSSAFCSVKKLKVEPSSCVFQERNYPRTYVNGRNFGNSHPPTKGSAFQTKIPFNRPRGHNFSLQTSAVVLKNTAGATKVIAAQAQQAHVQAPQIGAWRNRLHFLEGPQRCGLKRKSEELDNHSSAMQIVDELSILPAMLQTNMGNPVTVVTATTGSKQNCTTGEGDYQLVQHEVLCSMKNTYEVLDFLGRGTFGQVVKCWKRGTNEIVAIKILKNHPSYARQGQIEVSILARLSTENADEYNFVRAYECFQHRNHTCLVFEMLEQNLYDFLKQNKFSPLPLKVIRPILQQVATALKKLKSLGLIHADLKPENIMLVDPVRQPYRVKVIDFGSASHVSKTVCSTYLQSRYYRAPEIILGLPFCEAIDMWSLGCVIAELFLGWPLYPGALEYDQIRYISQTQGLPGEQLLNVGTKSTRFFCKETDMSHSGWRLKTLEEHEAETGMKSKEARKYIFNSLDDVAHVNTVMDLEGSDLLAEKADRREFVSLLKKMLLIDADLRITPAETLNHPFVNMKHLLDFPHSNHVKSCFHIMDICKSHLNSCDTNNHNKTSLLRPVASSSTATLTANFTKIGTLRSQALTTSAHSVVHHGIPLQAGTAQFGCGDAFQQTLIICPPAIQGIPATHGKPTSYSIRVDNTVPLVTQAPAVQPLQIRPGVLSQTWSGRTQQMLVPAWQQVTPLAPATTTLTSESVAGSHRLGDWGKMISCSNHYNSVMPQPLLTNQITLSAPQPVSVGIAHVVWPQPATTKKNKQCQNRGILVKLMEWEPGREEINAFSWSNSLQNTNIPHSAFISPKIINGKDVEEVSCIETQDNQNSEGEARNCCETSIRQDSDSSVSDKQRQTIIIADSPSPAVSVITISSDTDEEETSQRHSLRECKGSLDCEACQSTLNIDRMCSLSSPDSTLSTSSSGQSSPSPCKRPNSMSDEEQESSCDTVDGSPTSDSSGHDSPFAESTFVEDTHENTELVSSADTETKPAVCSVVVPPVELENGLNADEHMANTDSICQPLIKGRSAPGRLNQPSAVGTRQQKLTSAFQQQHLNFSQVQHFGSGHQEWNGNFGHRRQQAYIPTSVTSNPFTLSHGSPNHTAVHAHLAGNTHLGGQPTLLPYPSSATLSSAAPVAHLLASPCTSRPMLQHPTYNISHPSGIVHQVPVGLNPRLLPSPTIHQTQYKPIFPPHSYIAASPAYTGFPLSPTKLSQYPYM

ICK (human) = ICK (human) (UniProt Q9UPZ9)
ITK (human) = ITK (human) (UniProt Q08881)
MAP3K11 (human) = MAP3K11 (human) (UniProt Q16584)
MAP4K5 (human) = MAP4K5 (human) (UniProt Q9Y4K4)
MARK1 (human) = MARK1 (human) (UniProt Q9P0L2)
MARK4 (human) = MARK4 (human) (UniProt Q96L34)
[3] = tested on: MET (human), P08581 [M1250T]
MYLK2 (human) = MYLK2 (human) (UniProt Q9H1R3)
NEK1 (human) = NEK1 (human) (UniProt Q96PY6)
NEK4 (human) = NEK4 (human) (UniProt P51957)
NTRK1 (human) = NTRK1 (human) (UniProt P04629)
NTRK2 (human) = NTRK2 (human) (UniProt Q16620)
Sequence of NTRK2 (human) (Q16620 whole entry, looked up): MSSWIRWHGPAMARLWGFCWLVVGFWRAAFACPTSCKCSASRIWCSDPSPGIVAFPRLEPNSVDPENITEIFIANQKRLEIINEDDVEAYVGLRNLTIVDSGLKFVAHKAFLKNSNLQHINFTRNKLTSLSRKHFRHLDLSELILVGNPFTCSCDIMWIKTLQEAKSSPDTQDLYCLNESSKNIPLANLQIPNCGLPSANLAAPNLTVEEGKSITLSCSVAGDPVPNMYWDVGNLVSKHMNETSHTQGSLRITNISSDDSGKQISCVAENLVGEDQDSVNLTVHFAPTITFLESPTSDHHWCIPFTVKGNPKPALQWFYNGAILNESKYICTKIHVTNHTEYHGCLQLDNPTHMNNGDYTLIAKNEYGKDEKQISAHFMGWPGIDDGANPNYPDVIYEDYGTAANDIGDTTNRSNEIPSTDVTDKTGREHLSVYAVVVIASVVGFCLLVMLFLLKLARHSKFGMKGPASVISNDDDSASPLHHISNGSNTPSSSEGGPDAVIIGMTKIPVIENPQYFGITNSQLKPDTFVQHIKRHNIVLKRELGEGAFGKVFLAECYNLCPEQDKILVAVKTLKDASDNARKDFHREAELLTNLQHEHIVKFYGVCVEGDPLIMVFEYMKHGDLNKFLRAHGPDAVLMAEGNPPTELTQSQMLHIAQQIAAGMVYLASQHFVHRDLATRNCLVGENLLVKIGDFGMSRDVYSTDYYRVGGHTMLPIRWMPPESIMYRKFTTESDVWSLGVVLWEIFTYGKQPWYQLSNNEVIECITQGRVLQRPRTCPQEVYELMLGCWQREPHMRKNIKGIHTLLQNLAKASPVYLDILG

NUAK1 (human) = NUAK1 (human) (UniProt O60285)
PDGFRA (human) = PDGFRA (human) (UniProt P16234)
PIK3CA (human) = PIK3CA (human) (UniProt P42336)
[4] = tested on: PIK3CA (human), P42336 [C420R]
[5] = tested on: PIK3CA (human), P42336 [H1047L]
PLK2 (human) = PLK2 (human) (UniProt Q9NYY3)
PLK3 (human) = PLK3 (human) (UniProt Q9H4B4)
PRKCH (human) = PRKCH (human) (UniProt P24723)
PRKD1 (human) = PRKD1 (human) (UniProt Q15139)
PRKD3 (human) = PRKD3 (human) (UniProt O94806)
SGK3 (human) = SGK3 (human) (UniProt Q96BR1)
STK16 (human) = STK16 (human) (UniProt O75716)
Sequence of STK16 (human) (O75716 whole entry, looked up): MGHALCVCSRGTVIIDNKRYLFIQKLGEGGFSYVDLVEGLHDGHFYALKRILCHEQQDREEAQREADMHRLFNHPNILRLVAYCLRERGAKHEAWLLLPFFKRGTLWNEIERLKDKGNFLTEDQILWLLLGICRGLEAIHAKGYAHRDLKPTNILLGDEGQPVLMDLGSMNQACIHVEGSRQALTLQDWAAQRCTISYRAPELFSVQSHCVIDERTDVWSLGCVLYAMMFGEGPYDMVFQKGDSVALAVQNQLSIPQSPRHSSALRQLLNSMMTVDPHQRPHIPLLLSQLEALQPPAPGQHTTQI

STK39 (human) = STK39 (human) (UniProt Q9UEW8)
TGFBR1 (human) = TGFBR1 (human) (UniProt P36897)
Sequence of TGFBR1 (human) (P36897 whole entry, looked up): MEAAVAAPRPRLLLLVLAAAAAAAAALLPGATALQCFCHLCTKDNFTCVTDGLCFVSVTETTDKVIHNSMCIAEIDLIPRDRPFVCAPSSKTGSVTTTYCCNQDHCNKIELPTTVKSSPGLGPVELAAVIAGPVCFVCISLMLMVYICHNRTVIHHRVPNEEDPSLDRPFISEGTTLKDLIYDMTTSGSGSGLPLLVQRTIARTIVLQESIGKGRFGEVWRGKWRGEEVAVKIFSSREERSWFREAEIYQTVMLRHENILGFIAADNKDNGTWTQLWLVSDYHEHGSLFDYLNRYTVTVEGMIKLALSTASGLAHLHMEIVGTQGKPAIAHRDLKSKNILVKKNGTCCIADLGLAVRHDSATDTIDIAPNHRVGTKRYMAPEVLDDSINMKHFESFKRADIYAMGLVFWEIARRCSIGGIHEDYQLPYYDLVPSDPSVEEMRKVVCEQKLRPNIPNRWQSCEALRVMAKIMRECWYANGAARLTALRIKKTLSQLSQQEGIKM

TIE1 (human) = TIE1 (human) (UniProt P35590)
[6] = target: TYK2 JH2 pseudokinase (human) (UniProt P29597)

Sequence of CDK17 (human) (Q00537 whole entry, looked up): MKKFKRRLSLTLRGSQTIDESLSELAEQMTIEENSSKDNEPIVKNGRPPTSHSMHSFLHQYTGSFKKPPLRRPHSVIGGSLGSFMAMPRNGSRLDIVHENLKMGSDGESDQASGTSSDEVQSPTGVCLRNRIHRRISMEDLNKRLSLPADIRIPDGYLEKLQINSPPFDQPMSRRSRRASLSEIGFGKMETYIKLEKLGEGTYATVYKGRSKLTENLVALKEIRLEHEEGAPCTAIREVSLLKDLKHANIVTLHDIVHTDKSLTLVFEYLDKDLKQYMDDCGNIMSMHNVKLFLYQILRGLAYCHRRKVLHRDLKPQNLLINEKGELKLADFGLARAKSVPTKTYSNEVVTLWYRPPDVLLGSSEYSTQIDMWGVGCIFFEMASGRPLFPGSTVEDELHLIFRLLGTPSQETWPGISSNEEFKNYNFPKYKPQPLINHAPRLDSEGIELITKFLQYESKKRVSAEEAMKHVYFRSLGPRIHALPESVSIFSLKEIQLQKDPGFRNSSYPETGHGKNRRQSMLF
Sequence of CDK3 (human) (Q00526 whole entry, looked up): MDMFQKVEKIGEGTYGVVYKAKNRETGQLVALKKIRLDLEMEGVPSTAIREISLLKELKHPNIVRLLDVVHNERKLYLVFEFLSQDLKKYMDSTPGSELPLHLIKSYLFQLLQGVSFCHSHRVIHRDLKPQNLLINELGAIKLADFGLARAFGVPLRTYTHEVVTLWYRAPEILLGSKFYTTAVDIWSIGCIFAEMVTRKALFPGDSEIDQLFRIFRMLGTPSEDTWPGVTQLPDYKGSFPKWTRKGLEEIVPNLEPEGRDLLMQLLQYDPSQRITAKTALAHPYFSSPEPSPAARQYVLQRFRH

Cn1c2ccccc2c2c3c(c4c5ccccc5n(CCC#N)c4c21)CNC3=O
kinase still bound, per cent of control [1]: 100%
kinase still bound, per cent of control (ACVR2A (human)): 100%
kinase still bound, per cent of control (CAMK1D (human)): 93%
kinase still bound, per cent of control (CDK17 (human)): 100%
kinase still bound, per cent of control (CDK19 (human)): 91%
kinase still bound, per cent of control (CDK3 (human)): 75%
kinase still bound, per cent of control (CIT (human)): 34%
kinase still bound, per cent of control (CLK1 (human)): 16%
kinase still bound, per cent of control (CSNK2A2 (human)): 65%
kinase still bound, per cent of control (CaMK1 (human)): 76%
kinase still bound, per cent of control (EPHA8 (human)): 90%
kinase still bound, per cent of control [2]: 12%
kinase still bound, per cent of control (HIPK2 (human)): 15%
kinase still bound, per cent of control (HIPK3 (human)): 12%
kinase still bound, per cent of control (ICK (human)): 20%
kinase still bound, per cent of control (ITK (human)): 40%
kinase still bound, per cent of control (MAP3K11 (human)): 17%
kinase still bound, per cent of control (MAP4K5 (human)): 7.8%
kinase still bound, per cent of control (MARK1 (human)): 64%
kinase still bound, per cent of control (MARK4 (human)): 72%
kinase still bound, per cent of control [3]: 100%
kinase still bound, per cent of control (MYLK2 (human)): 58%
kinase still bound, per cent of control (NEK1 (human)): 99%
kinase still bound, per cent of control (NEK4 (human)): 100%
kinase still bound, per cent of control (NTRK1 (human)): 0.1%
kinase still bound, per cent of control (NTRK2 (human)): 1.2%
kinase still bound, per cent of control (NUAK1 (human)): 89%
kinase still bound, per cent of control (PDGFRA (human)): 100%
kinase still bound, per cent of control (PIK3CA (human)): 100%
kinase still bound, per cent of control [4]: 46%
kinase still bound, per cent of control [5]: 43%
kinase still bound, per cent of control (PLK2 (human)): 100%
kinase still bound, per cent of control (PLK3 (human)): 100%
kinase still bound, per cent of control (PRKCH (human)): 18%
kinase still bound, per cent of control (PRKD1 (human)): 24%
kinase still bound, per cent of control (PRKD3 (human)): 2.8%
kinase still bound, per cent of control (SGK3 (human)): 72%
kinase still bound, per cent of control (STK16 (human)): 84%
kinase still bound, per cent of control (STK39 (human)): 76%
kinase still bound, per cent of control (TGFBR1 (human)): 79%
kinase still bound, per cent of control (TIE1 (human)): 100%
kinase still bound, per cent of control [6]: 84%
